Consider 1 compound from US5776489A, “Controlled release carbonic anhydrase inhibitor containing pharmaceutical compositions from spherical granules in capsule oral dosage unit form” (priority 1992, dated 1998).

≈ marks a conversion by molar mass, not a printed value.

For series [1] the following is noted: pH 1.2.
The conditions of series [2]: cited from earlier work.

Regarding `CC(=O)/N=c1/sc(S(N)(=O)=O)nn1C` [methazolamide], in series [1], the “degradation in gastric fluid” value is “degradation” and the “solubility in gastric fluid” value is given as “poor solubility”. Besides, in series [2] (pH 7.2 phosphate buffer), the solubility (in general, the dissolved amount per volume that the medium holds) is 3400 µg/mL (≈ 14.4 mM). For the same compound, the aqueous solubility (commonly the dissolved amount per volume that the medium holds) in series [2] (water, 25° C.) is 1500 µg/mL (≈ 6.35 mM).
